Source: US20110178168A1, “COUMARIN COMPOUNDS FOR THE TREATMENT OF CARDIOVASCULAR DISEASES AND A PROCESS FOR PREPARING THE SAME” (priority 2008, published 2011)

Key:
[1] = tested on: intracellular nitric oxide level in platelets; test: Enhancement of nitric oxide in platelets; type: cell-based
Description: Nitric oxide is known to mediate a number of pharmacological actions such as vasorelaxation, lowereing of blood pressure and inhibition of platelet aggregation. […] The specific acyl group attached to the coumarin derivative is attributed to the enhancement of intracellular nitric oxide level leading to the inhibition of ADP induced platelet aggregation.
(§1) Platelet Nitric Oxide Synthase (NOS) is remakably activated by way of acetylation catalyzed by Calreticulin transacetylase (CRTAase) leading to robust enhancement of NO in platelets. Compounds of Formula I enhance NO in platelets. Due to this activity, these compounds enhance the NOS leading to enhancement of platelet NO which contributes to the antiplatelet action. […] They are effective in causing the inhibition of ADP induced as well as collagen induced platelet aggregation both invitro and exvivo.

[2] = target: T1, Calreticulin transacetylase (CRTAase) (Homo sapiens, UniProt P27797); test: TAase (calreticulin transacetylase) activity; type: biochemical
T1 sequence (P27797 18-417): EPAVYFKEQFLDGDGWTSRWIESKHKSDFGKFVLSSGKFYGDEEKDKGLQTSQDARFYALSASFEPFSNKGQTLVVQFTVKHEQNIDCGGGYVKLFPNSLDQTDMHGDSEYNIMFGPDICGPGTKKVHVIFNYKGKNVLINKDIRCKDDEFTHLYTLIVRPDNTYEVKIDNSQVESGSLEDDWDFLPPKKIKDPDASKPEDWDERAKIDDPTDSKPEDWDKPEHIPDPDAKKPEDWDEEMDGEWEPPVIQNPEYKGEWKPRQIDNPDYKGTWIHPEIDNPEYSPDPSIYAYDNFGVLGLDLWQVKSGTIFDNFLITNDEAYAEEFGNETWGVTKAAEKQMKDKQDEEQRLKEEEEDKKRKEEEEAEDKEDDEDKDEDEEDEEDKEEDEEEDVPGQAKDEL
Description: as §1

platelets [3] = test: ADP-induced platelet aggregation ex vivo (platelet rich plasma); type: in vivo
Description: C. Preparation of Platelet Rich Plasma for the EX VIVO Studies

platelets [4] = test: ADP-induced platelet aggregation in vitro (platelet rich plasma); type: cell-based
Description: A. Preparation of Platelet Rich, Plasma for the IN VITRO Studies

Structure (SMILES)	Enhancement of nitric oxide (folds) [1]	TAase activity (Units) [2]	ADP-induced platelet aggregation (% inhibition) EX VIVO (platelets [3]) [%]	ADP-induced platelet aggregation (% inhibition) IN VITRO (platelets [4])
COC(=O)C(c1ccccc1Cl)N1CCc2sccc2C1 (centres unmarked)	Nil	Nil	65	Nil
CC(=O)Oc1ccccc1C(=O)O [ASPIRIN, Aspirin]	Nil	Nil	55	Nil
